The record followed here is PubChem BioAssay (NCI).

Test systems include K-562 leukemia; ACHN renal; SK-MEL-2 melanoma; RPMI-8226 leukemia; SK-MEL-5 melanoma; 786-0 renal; EKVX NSCLC; RXF 393 renal; HCC-2998 colon.
Common to all, as to experiment: inhibition of tumour cell growth, NCI panel, 48 h

The structures appear in SMILES notation.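 Exposure lasted 48 hours, with cells grown in 96-well plates and compounds tested at five concentrations. GI50 is the concentration that inhibits growth by half. The concentration for full growth arrest is given as TGI.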

For `CC(C)(C)c1cc(-c2c3nc(c(-c4cc(C(C)(C)C)cc(C(C)(C)C)c4)c4ccc([nH]4)c(-c4cc(C(C)(C)C)cc(C(C)(C)C)c4)c4nc(c(-c5cc(C(C)(C)C)cc(C(C)(C)C)c5)c5ccc2[nH]5)C=C4)C=C3)cc(C(C)(C)C)c1`, the TGI with K-562 leukemia, with ACHN renal, in the experiment with SK-MEL-2 melanoma, in the experiment with RPMI-8226 leukemia, with SK-MEL-5 melanoma and with 786-0 renal was greater than 100 µM in each case. In addition, the TGI with EKVX NSCLC, with RXF 393 renal and with HCC-2998 colon was greater than 100 µM in each case.
On to `Cc1ccccc1NC(=O)C(=O)CC(=O)C1CCOC1=O` (stereo not given), for which the TGI in the experiment on K-562 leukemia, in the experiment on ACHN renal, with SK-MEL-2 melanoma, in the experiment on RPMI-8226 leukemia, in the experiment on SK-MEL-5 melanoma and with 786-0 renal was greater than 100 µM each time. Besides, the TGI in the experiment with EKVX NSCLC, in the experiment with RXF 393 renal and in the experiment on HCC-2998 colon was greater than 100 µM throughout.
For `NC(=NCCO)c1ccc(N2CCCN(c3ccc(C(N)=NCCO)cc3)CC2)cc1`, the GI50 with ACHN renal, with 786-0 renal and in the experiment on HCC-2998 colon was greater than 100 µM each time. In addition, the TGI in the experiment on ACHN renal, in the experiment with 786-0 renal and in the experiment with HCC-2998 colon was greater than 100 µM in each case.
Consider `COc1ccc(C(=O)C/C(=N/NC(N)=S)C(=O)Nc2ccccc2)cc1`, for which the TGI with K-562 leukemia, with ACHN renal, in the experiment on SK-MEL-2 melanoma, in the experiment on RPMI-8226 leukemia, in the experiment on SK-MEL-5 melanoma and in the experiment with 786-0 renal was greater than 100 µM in each case. Further, the TGI in the experiment on EKVX NSCLC, in the experiment on RXF 393 renal and in the experiment on HCC-2998 colon was greater than 100 µM in each case.
As to `Cc1cccc(C)c1NC(=O)CCCC(=O)C(C#N)c1ccc(Cl)cc1` (stereo not given), the TGI in the experiment with K-562 leukemia, in the experiment on ACHN renal, with SK-MEL-2 melanoma, in the experiment on RPMI-8226 leukemia, in the experiment with SK-MEL-5 melanoma and in the experiment on 786-0 renal was greater than 100 µM in each case. For the same compound, the TGI in the experiment with EKVX NSCLC and in the experiment with HCC-2998 colon was greater than 100 µM throughout.
In the case of `C[CH2][Ge]([CH2]C)([CH2]C)[O]C(=O)C([O][Ge]([CH2]C)([CH2]C)[CH2]C)c1ccccc1` (stereo not given), the GI50 was 14.3 µM in the experiment on K-562 leukemia; 15 µM in the experiment on ACHN renal; 11.2 µM in the experiment on RPMI-8226 leukemia; 11.8 µM in the experiment on SK-MEL-5 melanoma; 22.4 µM in the experiment with 786-0 renal; 9.4 µM in the experiment on EKVX NSCLC. The GI50 in the experiment on HCC-2998 colon was 19.2 µM. The TGI was 46.1 µM in the experiment with K-562 leukemia; 51.3 µM in the experiment on ACHN renal; greater than 100 µM with RPMI-8226 leukemia; 26.8 µM in the experiment on SK-MEL-5 melanoma; 74.3 µM in the experiment on 786-0 renal; 75.1 µM in the experiment on EKVX NSCLC. Besides, the figures for the TGI in the experiment with RXF 393 renal and in the experiment on HCC-2998 colon were 16.1 µM and 38.5 µM, respectively.
`O=C1[C@@H]2C(c3ccncc3)=NO[C@@H]2C(=O)N1c1ccc(Cc2ccc(N3C(=O)[C@H]4C(c5ccncc5)=NO[C@H]4C3=O)cc2)cc1`: the TGI in the experiment on K-562 leukemia, in the experiment on ACHN renal, in the experiment with SK-MEL-2 melanoma, with RPMI-8226 leukemia, in the experiment with SK-MEL-5 melanoma and with 786-0 renal was greater than 100 µM throughout. Also, the TGI in the experiment on EKVX NSCLC, in the experiment with RXF 393 renal and with HCC-2998 colon was greater than 100 µM each time.
`CN(C)CCC(=O)N1CCc2c([nH]c3ccccc23)C1c1cccnc1` (stereo not given): the TGI in the experiment on K-562 leukemia, with ACHN renal, in the experiment with RPMI-8226 leukemia, in the experiment with SK-MEL-5 melanoma, in the experiment on 786-0 renal and in the experiment on EKVX NSCLC was greater than 100 µM throughout. Also, the values for the TGI in the experiment on RXF 393 renal and with HCC-2998 colon were 59.7 µM and greater than 100 µM, respectively.
As to `O=[N+]([O-])c1ccc2nc3ccscc-3c2c1`, the TGI is greater than 100 µM in the experiment on K-562 leukemia; greater than 100 µM with ACHN renal; 77.7 µM with SK-MEL-2 melanoma; 44.1 µM in the experiment on RPMI-8226 leukemia; 33.1 µM in the experiment with SK-MEL-5 melanoma; greater than 100 µM with 786-0 renal. For the same compound, the TGI with EKVX NSCLC was greater than 100 µM; with HCC-2998 colon, 34.1 µM.
For `NCCn1cnc2nc(NC(=O)c3ccccc3)[nH]c(=O)c21`, the TGI in the experiment on K-562 leukemia, in the experiment with ACHN renal, in the experiment on SK-MEL-2 melanoma, in the experiment with RPMI-8226 leukemia, in the experiment with 786-0 renal and in the experiment with EKVX NSCLC was greater than 100 µM in each case. For the same compound, the TGI in the experiment on RXF 393 renal and with HCC-2998 colon was greater than 100 µM in each case.
On to `COc1ccc(/C(=C\c2cc(OC)c(OC)c(OC)c2)C(=O)O)cc1`, for which the TGI is greater than 100 µM with K-562 leukemia; greater than 100 µM in the experiment on ACHN renal; 84.6 µM in the experiment with RPMI-8226 leukemia; 41.7 µM in the experiment on SK-MEL-5 melanoma; greater than 100 µM in the experiment on 786-0 renal; greater than 100 µM with EKVX NSCLC. In the experiment on RXF 393 renal, this compound yielded a TGI of 39.7 µM.
Take `Cc1nnc2n1N=C(c1ccc(-c3ccc([N+](=O)[O-])cc3)o1)CS2`: the TGI in the experiment with K-562 leukemia, with ACHN renal, with SK-MEL-2 melanoma, in the experiment on RPMI-8226 leukemia, in the experiment with 786-0 renal and in the experiment with HCC-2998 colon was greater than 100 µM throughout.
On to `C=C[Si](C)(C)COC(=O)/C(C#N)=C/C=C/c1ccccc1`, for which the TGI in the experiment with K-562 leukemia, in the experiment on ACHN renal, in the experiment on SK-MEL-2 melanoma, in the experiment on RPMI-8226 leukemia, in the experiment with SK-MEL-5 melanoma and in the experiment with 786-0 renal was greater than 100 µM in each case. In addition, the TGI in the experiment with EKVX NSCLC, with RXF 393 renal and in the experiment with HCC-2998 colon was greater than 100 µM in each case.
`CCOC(=O)C1=C(c2ccccc2)NC(c2ccccc2)=C(C(=O)OCC)c2c1c(=O)cc[nH]c2=O`: the TGI in the experiment with K-562 leukemia, in the experiment on ACHN renal, in the experiment on SK-MEL-2 melanoma, in the experiment on RPMI-8226 leukemia, in the experiment with 786-0 renal and in the experiment on HCC-2998 colon was greater than 100 µM in each case.
Regarding `CCOC(=O)C1=C(C)N(NC(=O)OC)C2(N)N(NC(=O)OC)C(C)=C(C(=O)OCC)C12C#N` (stereo not given), the TGI with K-562 leukemia, with ACHN renal, in the experiment on SK-MEL-2 melanoma, with RPMI-8226 leukemia, with SK-MEL-5 melanoma and with 786-0 renal was greater than 100 µM each time. In addition, the TGI in the experiment with EKVX NSCLC and in the experiment with HCC-2998 colon was greater than 100 µM in each case.
